From ChEMBL document CHEMBL5625218, “An overview of limonoid synthetic derivatives as promising bioactive molecules” (Eur J Med Chem, 2023) come the findings set out here.

Assay [1] has as its system Staphylococcus aureus. The assay can be described thus: Antibacterial activity against methicillin-resistant Staphylococcus aureus 18032913 assessed as reduction in bacterial growth incubated for 24 hrs by CLSI based Mueller-Hinton broth assay. Type of assay: functional.
Assay [2] deals with Staphylococcus aureus. The assay can be described thus: Antibacterial activity against methicillin-resistant Staphylococcus aureus 15012406 assessed as reduction in bacterial growth incubated for 24 hrs by CLSI based Mueller-Hinton broth assay. Format: functional.
Assay [3] concerns Staphylococcus aureus. The assay can be described thus: Antibacterial activity against Staphylococcus aureus ATCC 25923 assessed as reduction in bacterial growth incubated for 24 hrs by CLSI based Mueller-Hinton broth assay. Format: functional.
Assay [4] deals with Staphylococcus aureus. The assay can be described thus: Antibacterial activity against methicillin-resistant Staphylococcus aureus 15019301 assessed as reduction in bacterial growth incubated for 24 hrs by CLSI based Mueller-Hinton broth assay. Type of assay: functional.
Assay [5] has as its system Staphylococcus aureus. The experiment in a line: Antibacterial activity against methicillin-resistant Staphylococcus aureus 17045463 assessed as reduction in bacterial growth incubated for 24 hrs by CLSI based Mueller-Hinton broth assay. Format: functional.
The test system of the next assay is Candida tropicalis. The experiment in a line: Antimicrobial activity against Candida tropicalis ATCC 18803 assessed as reduction in microbial growth incubated for 24 hrs by broth micro dilution method. Format: functional.
Another assay concerns Diutina rugosa. The assay can be described thus: Antimicrobial activity Candida rugosa DSM 2031 assessed as reduction in microbial growth incubated for 24 hrs by broth micro dilution method. Type of assay: functional.
The subject of the next assay is Cryptococcus neoformans. The experiment in a line: Antimicrobial activity Cryptococcus neoformans ATCC 28952 assessed as reduction in microbial growth incubated for 24 hrs by broth micro dilution method. Format: functional.
A further assay relates to Candida parapsilosis. The assay can be described thus: Antimicrobial activity Candida parapsilosis ATCC 22019 assessed as reduction in microbial growth incubated for 24 hrs by broth micro dilution method. Type of assay: functional. Particulars: Lodderomyces parapsilosis.
Assay [6] can be described thus: Antimicrobial activity Cryptococcus gattii VGI ATCC 2601 assessed as reduction in microbial growth incubated for 24 hrs by broth micro dilution method. Type of assay: functional.
In the next assay the test system is Candida albicans. The assay can be described thus: Antimicrobial activity against Candida albicans ATCC 10231 assessed as reduction in microbial growth incubated for 24 hrs by broth micro dilution method. Type of assay: functional.
Assay [7] concerns Mus musculus. The experiment in a line: Anti-inflammatory activity in mouse model of xylene-induced auricle edema assessed as inhibition of ear swelling at 70 mg/ml, IG pre-treated for 1 hr followed by xylene addition and measured after 1 hr relative to control. Type of assay: functional. Particulars: time 2 hrs. On the set-up: scale not given: the % may be the effect or the level left.

Assay [8] has as its system Mus musculus. The assay can be described thus: Antinociceptive activity in ip dosed mouse assessed as inhibition of acetic acid-induced abdominal constrictions by writhing test at 70 mg/ml relative to control. Type of assay: functional. Also on record: scale not given: the % may be the effect or the level left.
For assay [9], the target named is Voltage-gated inwardly rectifying potassium channel KCNH2 (Homo sapiens, UniProt Q12809). The experiment in a line: Inhibition of hERG. Type of assay: toxicity.
The test system of assay [10] is Tobacco mosaic virus. The assay can be described thus: Antiviral activity against TMV assessed as protection effect by measuring inhibition rate at 0.5 mg/ml measured after 72 hrs relative to control. Format: functional. On the set-up: scale not given: the % may be the effect or the level left.
Assay [11] relates to Tobacco mosaic virus. The assay can be described thus: Antiviral activity against TMV assessed as inactivation effect by measuring inhibition rate at 0.5 mg/ml measured after 72 hrs relative to control. Also on record: scale not given: the % may be the effect or the level left. Type of assay: functional.
The test system of assay [12] is Tobacco mosaic virus. The experiment in a line: Antiviral activity against TMV assessed as curative effect by measuring inhibition rate at 0.5 mg/ml measured after 72 hrs relative to control. Type of assay: functional. Also on record: scale not given: the % may be the effect or the level left.
The next assay has as its system HepG2. The experiment in a line: Anticancer activity against human HepG2 cells assessed as reduction in cell viability incubated for 72 hrs by Alamar Blue assay. Particulars: HepG2, 72 h. Type of assay: functional, cell-based.
For the next assay, the system named is ES-2. The experiment in a line: Anticancer activity against human ES2 cells assessed as reduction in cell viability incubated for 72 hrs by Alamar Blue assay. Conditions: ES-2, 72 h. Type of assay: functional, cell-based.
The test system of another assay is A549. The assay can be described thus: Anticancer activity against human A549 cells assessed as reduction in cell viability incubated for 72 hrs by Alamar Blue assay. Type of assay: functional, cell-based. Conditions: A549, 72 h.
The next assay relates to HCT-116. The experiment in a line: Anticancer activity against human HCT-116 cells assessed as reduction in cell viability incubated for 72 hrs by MTT assay. Type of assay: functional, cell-based. Particulars: HCT-116, 72 h.
For another assay, the system named is A 172. The assay can be described thus: Anticancer activity against human A-172 cells assessed as reduction in cell viability incubated for 72 hrs by Alamar Blue assay. Particulars: A 172, 72 h. Type of assay: functional, cell-based.
The next assay relates to MDA-MB-231. The assay can be described thus: Anticancer activity against human MDA-MB-231 cells assessed as reduction in cell viability incubated for 72 hrs by Alamar Blue assay. Type of assay: functional, cell-based. Conditions: MDA-MB-231, 72 h.
Another assay deals with HOS. The assay can be described thus: Anticancer activity against human HOS cells assessed as reduction in cell viability incubated for 72 hrs by Alamar Blue assay. Type of assay: functional, cell-based.
A further assay relates to Plasmodium falciparum. The assay can be described thus: Antiplasmodial activity against Plasmodium falciparum W2 infected in human erythrocytes assessed as reduction in parasite growth incubated for 48 hrs by YOYO-1 dye based flow cytometric analysis. Format: functional, organism-based. Conditions: W2, 48 h.

Values after ≈ are worked out from the molar mass of the structure shown. Bounds are passed on as bounds.

Chain of Voltage-gated inwardly rectifying potassium channel KCNH2 (Q12809 whole entry): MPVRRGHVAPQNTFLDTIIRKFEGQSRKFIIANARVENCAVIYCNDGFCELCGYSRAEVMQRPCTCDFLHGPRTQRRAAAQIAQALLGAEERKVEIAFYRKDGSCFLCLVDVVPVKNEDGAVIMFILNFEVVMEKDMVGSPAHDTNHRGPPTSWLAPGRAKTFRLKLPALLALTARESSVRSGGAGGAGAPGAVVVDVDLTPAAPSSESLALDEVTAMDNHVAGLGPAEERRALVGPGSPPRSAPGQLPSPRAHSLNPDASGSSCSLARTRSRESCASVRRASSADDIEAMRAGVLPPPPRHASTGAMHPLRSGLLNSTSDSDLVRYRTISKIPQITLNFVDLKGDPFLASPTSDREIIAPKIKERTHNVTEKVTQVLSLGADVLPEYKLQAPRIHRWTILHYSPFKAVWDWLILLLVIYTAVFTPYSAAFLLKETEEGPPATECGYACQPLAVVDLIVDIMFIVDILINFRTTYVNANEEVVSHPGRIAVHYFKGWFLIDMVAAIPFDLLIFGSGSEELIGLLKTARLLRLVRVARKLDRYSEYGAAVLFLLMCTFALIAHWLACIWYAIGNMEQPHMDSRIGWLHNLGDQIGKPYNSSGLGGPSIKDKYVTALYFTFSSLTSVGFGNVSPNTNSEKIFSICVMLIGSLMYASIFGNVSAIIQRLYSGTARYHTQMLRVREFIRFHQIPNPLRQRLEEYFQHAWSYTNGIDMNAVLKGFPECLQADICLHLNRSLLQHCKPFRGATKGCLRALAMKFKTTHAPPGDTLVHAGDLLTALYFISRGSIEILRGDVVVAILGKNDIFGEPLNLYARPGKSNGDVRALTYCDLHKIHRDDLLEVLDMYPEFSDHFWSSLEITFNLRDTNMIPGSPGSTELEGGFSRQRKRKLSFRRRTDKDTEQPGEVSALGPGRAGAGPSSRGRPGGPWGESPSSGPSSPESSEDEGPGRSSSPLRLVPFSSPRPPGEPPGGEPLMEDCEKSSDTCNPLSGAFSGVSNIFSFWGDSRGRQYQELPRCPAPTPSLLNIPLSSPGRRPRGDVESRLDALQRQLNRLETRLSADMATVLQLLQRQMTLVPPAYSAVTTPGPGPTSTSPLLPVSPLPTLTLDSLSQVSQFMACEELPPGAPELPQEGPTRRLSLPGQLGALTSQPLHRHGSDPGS

Consider `CC(=O)O[C@@H](c1ccoc1)[C@@H]1CCC[C@H](C)C1=O`, for which the MIC50 with Staphylococcus aureus [1] was 64 µg/mL (≈ 256 µM); in the assay with Staphylococcus aureus [2], 128 µg/mL (≈ 511 µM); in the assay on Staphylococcus aureus [3] it was 12 µg/mL (≈ 47.9 µM); with Staphylococcus aureus [4] it was 64 µg/mL (≈ 256 µM); with Staphylococcus aureus [5], 128 µg/mL (≈ 511 µM).

With `C[C@H]1CCC[C@@H]([C@H](O)c2ccoc2)C1=O`, the MIC50 with Staphylococcus aureus [2], in the assay on Staphylococcus aureus [3] and in the assay with Staphylococcus aureus [4] was 512 µg/mL (≈ 2460 µM) throughout.

For the compound `CC1(C)O[C@@H](CC(=O)NCc2cn(Cc3ccc(Br)cc3)nn2)[C@@]2(CO)[C@H]1CC(=O)[C@@]1(C)C3=CC(=O)O[C@@H](c4ccoc4)[C@]3(C)CC[C@@H]12`, the MIC (in the assay with Candida tropicalis; in the assay with Diutina rugosa; in the assay with Cryptococcus neoformans; in the assay on Candida parapsilosis; in assay [6]; in the assay on Candida albicans) was 34 µM in each case.

Turning to `CC1(C)O[C@H]2CC(=O)OC[C@@]23[C@H]1C[C@H](NC(=O)CCN1CCOCC1)[C@@]1(C)C2=CC(=O)O[C@@H](c4ccoc4)[C@]2(C)CC[C@@H]13.Cl`, the Activity in the assay with Mus musculus [7] is listed as 24.04%; in the assay with Mus musculus [8], 54.3%.

On to `CC1(C)O[C@H]2CC(=O)OC[C@]23[C@H]2CC[C@@]4(C)[C@H](c5coc(C(=O)CCCCN6CCOCC6)c5)OC(=O)[C@H]5O[C@]54[C@]2(C)C(=O)C[C@@H]13`, for which, in assay [9], the IC50 is more than 100 µM.

In the case of `CC1(C)O[C@H]2CC(=O)OC[C@]23[C@H]2CC[C@@]4(C)[C@H](c5ccoc5)OC(=O)[C@H]5O[C@]54[C@]2(C)OC(=O)C[C@@H]13`, the Activity in the assay on Tobacco mosaic virus [10] was found to be 23.6%; in the assay with Tobacco mosaic virus [11] it was 44.8%; in the assay on Tobacco mosaic virus [12], 13.1%.

For the compound `CC1(C)O[C@H]2CC(=O)OC[C@]23[C@H]2CC[C@@]4(C)[C@H](c5ccoc5)OC(=O)[C@H]5O[C@]54[C@]2(C)[C@@H](OC(=O)C/C=C/c2ccccc2)C[C@@H]13`, the Activity with Tobacco mosaic virus [10] is on record as 29.3%; with Tobacco mosaic virus [11], 65.7%; in the assay on Tobacco mosaic virus [12], 41.7%.

Turning to `CC1(C)OC(=O)C=C[C@]2(C)[C@H]3CC[C@@]4(C)[C@H](c5ccoc5)OC(=O)[C@H]5O[C@]54[C@]3(C)OC(=O)C[C@@H]12`, the Activity in the assay on Tobacco mosaic virus [10] amounted to 30%; in the assay with Tobacco mosaic virus [11], 56.5%; in the assay with Tobacco mosaic virus [12] it was 17.5%.

As for `CC1(C)O[C@H]2CC(=O)OC[C@]23[C@H]2CC[C@@]4(C)[C@H](c5ccoc5)OC(=O)[C@H]5O[C@]54[C@]2(C)[C@@H](NC(=O)CCN2CCOCC2)C[C@@H]13.Cl`, the Activity with Mus musculus [7] is given as 58.15%; in the assay on Mus musculus [8], 57.35%.

Take `C#CCO[C@H]1C=C(C(C)C)[C@]2(CCCC(=O)O2)[C@H]2CC[C@]3(C)C(=CC(=O)O[C@H]3c3ccoc3)[C@]12C`: the IC50 worked out at 7.1 µM in the assay with HepG2; 0.58 µM in the assay with ES-2; 2.59 µM in the assay with A549; 1.6 µM in the assay on HCT-116; 0.78 µM in the assay with A 172; 0.64 µM with MDA-MB-231. For the same compound, the IC50 in the assay with HOS amounted to 1.61 µM.

Turning to `CC(=O)O[C@H](c1ccoc1)[C@@H]1CCC[C@H](C)C1=O`, the MIC50 in the assay on Staphylococcus aureus [1] turned out to be 64 µg/mL (≈ 256 µM); in the assay on Staphylococcus aureus [2] it was 128 µg/mL (≈ 511 µM); in the assay on Staphylococcus aureus [3] it was 12 µg/mL (≈ 47.9 µM); with Staphylococcus aureus [4], 64 µg/mL (≈ 256 µM); with Staphylococcus aureus [5], 128 µg/mL (≈ 511 µM).

Take `C[C@H]1CCC[C@@H]([C@@H](O)c2ccoc2)C1=O`: the MIC50 in the assay on Staphylococcus aureus [2], in the assay with Staphylococcus aureus [3] and in the assay with Staphylococcus aureus [4] was 512 µg/mL (≈ 2460 µM) each time.

As for `CC1(C)OC(=O)C=C[C@]2(C)[C@H]3CC[C@@]4(C)[C@H](c5ccoc5)OC(=O)[C@H]5O[C@]54[C@]3(C)C(=O)C[C@@H]12` [OBACUNONE], the Activity was found to be 21.5% with Tobacco mosaic virus [10], 35.2% in the assay on Tobacco mosaic virus [11] and 7.7% with Tobacco mosaic virus [12].

For the compound `COC(=O)C[C@H](OC(C)=O)[C@]1(C)[C@H]2CC[C@@]3(C)[C@H](c4ccoc4)OC(=O)[C@H]4O[C@]43[C@]2(C)[C@H](OC(C)=O)C[C@H]1C(C)(C)O`, the IC50 in the assay with Plasmodium falciparum came to 18.3 µM.

On to `CC1(C)O[C@H]2CC(=O)OC[C@]23[C@H]2CC[C@@]4(C)[C@H](c5ccoc5)OC(=O)[C@H]5O[C@]54[C@]2(C)C(=O)C[C@@H]13` [LIMONIN], for which the values for the Activity in the assay with Tobacco mosaic virus [10], with Tobacco mosaic virus [11] and in the assay on Tobacco mosaic virus [12] were 27.4%, 41.9% and 5.8%, respectively.

`CC(=O)O[C@H]1CC(=O)OC(C)(C)[C@@H]2C[C@@H](OC(C)=O)[C@]3(C)[C@H](CC[C@@]4(C)[C@H](c5ccoc5)OC(=O)[C@H]5O[C@@]534)[C@@]12C`: in the assay on Plasmodium falciparum, the IC50 is 16.5 µM.

For the compound `CC1(C)O[C@H]2CC(=O)OC[C@]23[C@H]2CC[C@]4(C)C(=CC(=O)O[C@H]4c4coc(C(=O)CCl)c4)[C@]2(C)OC(=O)C[C@@H]13`, the IC50 stood at 8.45 µM in the assay with HepG2; 3.65 µM in the assay with ES-2; 7.62 µM with A549; 3.28 µM in the assay on HCT-116; 1.71 µM with A 172; 5.53 µM in the assay with MDA-MB-231. Moreover, in the assay on HOS, the IC50 stood at 3.88 µM.
